Experimental data reported in patent US7074789B2, “Kinase inhibitors” (Amgen Inc., priority 1999, dated 2006).
pIC50: −log10 of the molar value.

Legend:
Format in all cases: biochemical
c-Met = molecular target: T1, c-Met (Homo sapiens, UniProt P08581); experiment: Kinase inhibition assay (33P transfer), c-Met; conditions: Table 2, kinase inhibition class; read-out: Met-1
T1 construct: Kinases are expressed as either kinase domains or full length constructs; made in house
From the text: (§1) The inhibitor compounds described herein are screened in the following manner. Kinases suitable for use in the following protocol to determine kinase activity of the compounds described herein include, -but are not limited to: Lck, Lyn, Src, Fyn, Syk, Zap-70, Itk, Tec, Btk, EGFR, ErbB2, Kdr, Flt-1, Flt-3, Tek, c-Met, InsR, and AKT.
(§2) Kinases are expressed as either kinase domains or full length constructs fused to glutathione S-transferase (GST) or polyHistidine tagged fusion proteins in either E. colior Baculovirus-High Five expression systems. They are purified to near homogeneity by affinity chromatography essentially as previously described (Lehr et al., 1996; Gish et al., 1995). In some instances, kinases are co-expressed or mixed with purified or partially purified regulatory polypeptides prior to measurement of activity.
(§3) Kinase activity and inhibition are measured essentially by established protocols (Braunwalder et al., 1996). Briefly, The transfer of ^33PO4 from ATP to the synthetic substrates poly(Glu, Tyr) 4:1 or poly(Arg, Ser) 3:1 attached to the bioactive surface of microtiter plates serves as the basis to evaluate enzyme activity. After an incubation period, the amount of phosphate transferred is measured by first washing the plate with 0.5% phosphoric acid, adding liquid scintillant, and then counting in a liquid scintillation detector. The IC50 is determined by the concentration of compound that causes a 50% reduction in the amount of […] incorporated onto the substrate bound to the plate.

Kdr = molecular target: T2, Kdr (Homo sapiens, UniProt P35968); experiment: Kinase inhibition assay (33P transfer), Kdr; conditions: Table 3; read-out: KDR-1
T2 construct: Kinases are expressed as either kinase domains or full length constructs; made in house
T2 sequence (P35968 20-1356, species assumed): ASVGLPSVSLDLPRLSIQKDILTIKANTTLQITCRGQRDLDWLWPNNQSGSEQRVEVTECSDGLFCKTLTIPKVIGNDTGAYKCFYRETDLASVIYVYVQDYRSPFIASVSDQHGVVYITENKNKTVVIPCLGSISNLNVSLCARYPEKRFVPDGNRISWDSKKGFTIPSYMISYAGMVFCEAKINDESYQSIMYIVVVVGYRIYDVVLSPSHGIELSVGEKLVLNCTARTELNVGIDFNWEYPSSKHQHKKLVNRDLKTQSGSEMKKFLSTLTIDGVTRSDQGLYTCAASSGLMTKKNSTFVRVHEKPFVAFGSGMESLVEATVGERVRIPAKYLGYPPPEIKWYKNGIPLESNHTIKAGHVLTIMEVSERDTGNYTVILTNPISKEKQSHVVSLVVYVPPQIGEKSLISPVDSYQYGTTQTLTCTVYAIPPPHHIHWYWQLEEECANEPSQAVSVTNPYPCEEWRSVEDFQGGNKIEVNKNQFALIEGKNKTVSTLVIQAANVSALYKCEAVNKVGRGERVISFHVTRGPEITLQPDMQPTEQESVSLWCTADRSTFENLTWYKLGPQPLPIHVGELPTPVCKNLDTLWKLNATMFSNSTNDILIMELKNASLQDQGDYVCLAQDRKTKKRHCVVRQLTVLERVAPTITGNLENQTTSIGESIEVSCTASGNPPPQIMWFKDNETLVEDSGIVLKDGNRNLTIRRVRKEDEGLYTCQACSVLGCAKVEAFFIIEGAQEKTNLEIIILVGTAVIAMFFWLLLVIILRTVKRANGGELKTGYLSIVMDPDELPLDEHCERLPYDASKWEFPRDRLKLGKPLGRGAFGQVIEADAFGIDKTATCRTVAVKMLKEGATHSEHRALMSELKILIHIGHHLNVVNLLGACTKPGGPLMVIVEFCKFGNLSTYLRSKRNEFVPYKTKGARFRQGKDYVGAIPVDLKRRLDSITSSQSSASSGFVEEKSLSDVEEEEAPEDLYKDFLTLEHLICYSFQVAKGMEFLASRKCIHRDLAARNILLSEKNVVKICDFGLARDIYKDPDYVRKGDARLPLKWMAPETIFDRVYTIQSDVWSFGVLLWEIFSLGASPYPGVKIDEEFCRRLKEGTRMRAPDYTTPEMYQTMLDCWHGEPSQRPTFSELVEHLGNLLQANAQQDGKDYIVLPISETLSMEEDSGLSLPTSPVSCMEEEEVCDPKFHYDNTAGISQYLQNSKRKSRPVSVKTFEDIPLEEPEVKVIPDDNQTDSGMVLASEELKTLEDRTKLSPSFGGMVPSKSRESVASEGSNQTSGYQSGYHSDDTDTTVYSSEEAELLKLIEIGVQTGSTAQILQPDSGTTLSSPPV
From the text: as §1
as §2, with “They are purified to near homogeneity by affinity chromatography essentially as previously described (Lehr et al., 1996; Gish et al., 1995).” left out
(§4) Briefly, The transfer of ^33PO4 from ATP to the synthetic substrates poly(Glu, Tyr) 4:1 or poly(Arg, Ser) 3:1 attached to the bioactive surface of microtiter plates serves as the basis to evaluate enzyme activity. After an incubation period, the amount of phosphate transferred is measured by first washing the plate with 0.5% phosphoric acid, adding liquid scintillant, and then counting in a liquid scintillation detector.

EGFR = molecular target: T3, EGFR (Homo sapiens, UniProt P00533); experiment: Kinase inhibition assay (33P transfer), EGFR; conditions: Table 2, kinase inhibition class; read-out: EGFR-1
T3 construct: Kinases are expressed as either kinase domains or full length constructs; made in house
T3 sequence (P00533 25-1210, species assumed): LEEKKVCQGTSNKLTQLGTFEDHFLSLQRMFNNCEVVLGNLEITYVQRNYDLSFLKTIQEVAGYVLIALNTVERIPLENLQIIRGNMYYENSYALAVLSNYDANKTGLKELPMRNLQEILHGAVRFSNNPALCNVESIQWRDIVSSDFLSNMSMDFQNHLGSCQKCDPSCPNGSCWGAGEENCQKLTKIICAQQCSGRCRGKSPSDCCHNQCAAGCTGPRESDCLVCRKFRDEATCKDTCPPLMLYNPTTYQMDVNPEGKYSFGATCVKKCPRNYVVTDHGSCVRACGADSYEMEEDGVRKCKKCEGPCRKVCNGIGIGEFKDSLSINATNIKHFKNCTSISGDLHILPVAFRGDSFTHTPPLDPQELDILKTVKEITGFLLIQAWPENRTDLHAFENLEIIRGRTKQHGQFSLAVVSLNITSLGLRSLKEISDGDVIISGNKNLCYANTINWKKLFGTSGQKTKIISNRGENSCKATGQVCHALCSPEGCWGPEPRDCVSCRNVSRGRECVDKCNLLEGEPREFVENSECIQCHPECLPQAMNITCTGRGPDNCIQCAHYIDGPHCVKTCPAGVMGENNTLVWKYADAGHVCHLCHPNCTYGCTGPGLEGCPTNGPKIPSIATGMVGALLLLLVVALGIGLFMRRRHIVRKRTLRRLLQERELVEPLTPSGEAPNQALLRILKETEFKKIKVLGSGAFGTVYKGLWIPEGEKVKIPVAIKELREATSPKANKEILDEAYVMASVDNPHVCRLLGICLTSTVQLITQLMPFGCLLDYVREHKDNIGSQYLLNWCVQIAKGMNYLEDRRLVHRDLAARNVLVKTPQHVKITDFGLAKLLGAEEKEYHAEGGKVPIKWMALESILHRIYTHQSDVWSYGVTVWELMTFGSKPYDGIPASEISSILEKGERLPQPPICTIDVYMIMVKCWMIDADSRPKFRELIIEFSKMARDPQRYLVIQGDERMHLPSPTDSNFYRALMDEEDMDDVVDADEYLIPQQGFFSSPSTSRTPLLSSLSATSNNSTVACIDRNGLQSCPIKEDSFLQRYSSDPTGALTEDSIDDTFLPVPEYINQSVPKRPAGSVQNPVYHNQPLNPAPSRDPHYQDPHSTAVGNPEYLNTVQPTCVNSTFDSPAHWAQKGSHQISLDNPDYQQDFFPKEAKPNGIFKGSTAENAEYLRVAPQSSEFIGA
From the text: as §1, §2, §3

Itk = molecular target: T4, Itk (Homo sapiens, UniProt Q08881); experiment: Kinase inhibition assay (33P transfer), Itk; conditions: Table 3; read-out: Itk-1
T4 construct: Kinases are expressed as either kinase domains or full length constructs; made in house
T4 sequence (Q08881 1-620): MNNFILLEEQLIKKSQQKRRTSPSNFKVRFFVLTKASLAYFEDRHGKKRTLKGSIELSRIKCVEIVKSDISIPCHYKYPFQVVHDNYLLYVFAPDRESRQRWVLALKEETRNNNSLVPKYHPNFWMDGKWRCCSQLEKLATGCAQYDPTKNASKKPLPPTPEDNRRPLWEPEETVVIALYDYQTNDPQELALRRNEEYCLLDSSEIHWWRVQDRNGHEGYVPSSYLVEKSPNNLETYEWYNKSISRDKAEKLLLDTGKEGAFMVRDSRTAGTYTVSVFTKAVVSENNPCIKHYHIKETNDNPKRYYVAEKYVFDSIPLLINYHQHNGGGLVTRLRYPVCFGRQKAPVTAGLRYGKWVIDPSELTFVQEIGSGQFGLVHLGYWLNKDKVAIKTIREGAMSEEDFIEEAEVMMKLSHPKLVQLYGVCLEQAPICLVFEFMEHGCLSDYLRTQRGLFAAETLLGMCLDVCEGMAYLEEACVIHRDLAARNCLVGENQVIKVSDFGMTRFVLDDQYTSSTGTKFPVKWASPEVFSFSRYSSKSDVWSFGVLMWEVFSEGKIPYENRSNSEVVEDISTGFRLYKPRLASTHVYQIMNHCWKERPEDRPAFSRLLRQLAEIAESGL
From the text: as §1, §2, §3

Lck = molecular target: T5, Lck (Homo sapiens, UniProt P06239); experiment: Kinase inhibition assay (33P transfer), Lck; conditions: Table 3; read-out: Lck-1
T5 construct: Kinases are expressed as either kinase domains or full length constructs; made in house
T5 sequence (P06239 whole entry, species assumed, the tested form may be a part): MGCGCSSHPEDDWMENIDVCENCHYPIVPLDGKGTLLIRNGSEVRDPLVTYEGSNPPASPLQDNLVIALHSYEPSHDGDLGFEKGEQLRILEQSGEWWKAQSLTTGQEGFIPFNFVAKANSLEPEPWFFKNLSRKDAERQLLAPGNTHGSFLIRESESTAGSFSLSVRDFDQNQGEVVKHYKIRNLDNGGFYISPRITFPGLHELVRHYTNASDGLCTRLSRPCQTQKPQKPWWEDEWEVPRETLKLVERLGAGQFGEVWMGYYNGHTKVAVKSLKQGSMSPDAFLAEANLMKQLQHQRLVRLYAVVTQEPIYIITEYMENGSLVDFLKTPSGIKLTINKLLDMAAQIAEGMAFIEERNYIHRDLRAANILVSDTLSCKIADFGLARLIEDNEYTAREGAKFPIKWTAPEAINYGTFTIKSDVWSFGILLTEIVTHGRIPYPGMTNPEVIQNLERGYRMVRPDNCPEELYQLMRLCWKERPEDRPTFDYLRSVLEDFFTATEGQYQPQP
From the text: as §1
as §2, with “They are purified to near homogeneity by affinity chromatography essentially as previously described (Lehr et al., 1996; Gish et al., 1995).” left out
as §4

Zap-70 = molecular target: T6, Zap-70 (Homo sapiens, UniProt P43403); experiment: Kinase inhibition assay (33P transfer), Zap-70; conditions: Table 3; read-out: Zap-1
T6 construct: Kinases are expressed as either kinase domains or full length constructs; made in house
T6 sequence (P43403 1-619): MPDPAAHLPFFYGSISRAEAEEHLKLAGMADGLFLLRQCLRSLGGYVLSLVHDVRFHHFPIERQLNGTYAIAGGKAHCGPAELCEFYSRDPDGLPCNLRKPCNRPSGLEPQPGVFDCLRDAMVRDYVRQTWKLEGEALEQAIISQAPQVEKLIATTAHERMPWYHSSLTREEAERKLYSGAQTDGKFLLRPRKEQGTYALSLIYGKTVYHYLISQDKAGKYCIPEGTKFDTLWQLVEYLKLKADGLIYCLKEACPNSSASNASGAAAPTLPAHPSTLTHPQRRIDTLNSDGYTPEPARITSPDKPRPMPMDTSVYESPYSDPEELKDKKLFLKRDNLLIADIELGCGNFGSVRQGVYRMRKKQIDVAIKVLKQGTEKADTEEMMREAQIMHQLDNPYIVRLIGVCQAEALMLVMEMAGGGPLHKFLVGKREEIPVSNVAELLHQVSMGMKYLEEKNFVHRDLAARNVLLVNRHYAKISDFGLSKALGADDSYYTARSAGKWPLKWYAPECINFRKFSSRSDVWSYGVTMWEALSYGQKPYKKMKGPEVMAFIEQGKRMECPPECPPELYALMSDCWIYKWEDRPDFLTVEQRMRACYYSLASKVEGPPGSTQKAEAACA
From the text: as §1
as §2, with “They are purified to near homogeneity by affinity chromatography essentially as previously described (Lehr et al., 1996; Gish et al., 1995).” left out
as §4

T1 sequence (P08581 25-1390): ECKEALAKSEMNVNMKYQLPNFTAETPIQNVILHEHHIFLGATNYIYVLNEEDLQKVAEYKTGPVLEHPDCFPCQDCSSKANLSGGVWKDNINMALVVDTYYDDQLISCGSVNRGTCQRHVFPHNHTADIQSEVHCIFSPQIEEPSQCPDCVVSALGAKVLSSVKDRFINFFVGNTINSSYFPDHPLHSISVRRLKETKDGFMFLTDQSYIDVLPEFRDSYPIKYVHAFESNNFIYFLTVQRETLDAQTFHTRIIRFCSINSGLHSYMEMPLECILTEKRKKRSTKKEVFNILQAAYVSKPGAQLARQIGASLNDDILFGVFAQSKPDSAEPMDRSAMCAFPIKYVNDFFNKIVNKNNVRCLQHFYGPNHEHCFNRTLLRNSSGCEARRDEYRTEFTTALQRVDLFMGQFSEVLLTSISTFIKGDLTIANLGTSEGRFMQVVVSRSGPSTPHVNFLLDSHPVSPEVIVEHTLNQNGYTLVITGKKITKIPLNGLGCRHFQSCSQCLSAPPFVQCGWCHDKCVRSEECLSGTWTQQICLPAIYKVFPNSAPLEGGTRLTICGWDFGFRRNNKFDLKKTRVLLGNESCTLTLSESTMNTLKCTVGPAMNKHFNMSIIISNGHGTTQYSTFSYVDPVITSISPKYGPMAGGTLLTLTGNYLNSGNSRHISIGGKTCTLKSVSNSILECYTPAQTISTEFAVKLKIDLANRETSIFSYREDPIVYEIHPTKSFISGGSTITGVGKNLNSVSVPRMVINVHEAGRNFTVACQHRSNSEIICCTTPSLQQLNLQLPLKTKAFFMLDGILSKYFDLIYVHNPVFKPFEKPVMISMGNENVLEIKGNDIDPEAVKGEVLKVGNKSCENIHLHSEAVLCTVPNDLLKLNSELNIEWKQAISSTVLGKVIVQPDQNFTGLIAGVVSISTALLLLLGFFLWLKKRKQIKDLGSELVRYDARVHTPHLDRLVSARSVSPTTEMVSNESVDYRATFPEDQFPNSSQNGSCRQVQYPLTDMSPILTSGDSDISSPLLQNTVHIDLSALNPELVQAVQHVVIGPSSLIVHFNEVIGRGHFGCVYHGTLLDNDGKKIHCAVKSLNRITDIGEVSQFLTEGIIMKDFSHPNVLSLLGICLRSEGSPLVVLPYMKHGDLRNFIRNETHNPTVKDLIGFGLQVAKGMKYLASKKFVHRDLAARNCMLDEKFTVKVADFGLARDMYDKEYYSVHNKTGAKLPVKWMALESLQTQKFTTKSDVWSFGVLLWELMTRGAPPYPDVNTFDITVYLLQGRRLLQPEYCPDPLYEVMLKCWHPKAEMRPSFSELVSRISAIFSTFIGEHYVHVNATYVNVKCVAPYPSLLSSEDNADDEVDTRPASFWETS

Row | pIC50 (c-Met) | pIC50 (Kdr) | pIC50 (EGFR) | pIC50 (Itk) | pIC50 (Lck) | pIC50 (Zap-70) | Structure (SMILES)
1 | < 4.85 | < 4.85 | < 4.85 | < 4.85 | < 4.85 | 4.96 to 5.12 | Brc1ccc(Nc2ncnc(-n3cccc3)n2)cc1 [Compound 272]
2 | < 4.80 | 5.08 to 5.85 | < 4.80 | < 4.80 | < 4.80 | < 4.80 | Cc1ccc(Nc2ncnc(-n3cccc3)n2)cc1Cl [Compound 276]
3 | < 4.78 | < 4.78 | < 4.78 | < 4.78 | < 4.78 | < 4.78 | Nc1ncnc(Nc2nc(-c3ccccc3)cs2)n1 [Compound 1020]
4 | < 4.88 | < 4.88 | < 4.88 | < 4.88 | < 4.88 | < 4.88 | FC(F)(F)c1ccc(Cl)c(Nc2ncnc(-n3cccc3)n2)c1 [Compound 283]
5 | < 4.77 | < 4.77 | < 4.77 | < 4.77 | < 4.77 | < 4.77 | COc1ccccc1Nc1ncnc(-n2cccc2)n1 [Compound 279]
6 | < 4.82 | < 4.82 | < 4.82 | < 4.82 | < 4.82 | < 4.82 | Nc1ncnc(Nc2cccc(Nc3ncnc(N)n3)c2)n1 [Compound 1027]
7 | < 4.65 | < 4.65 | < 4.65 | < 4.65 | < 4.65 | < 4.65 | Cc1ccc(Nc2ncnc(N)n2)cc1 [Compound 1017]
8 | < 4.80 | < 4.80 | < 4.80 | < 4.80 | < 4.80 | < 4.80 | ClCc1ccccc1Nc1ncnc(-n2cccc2)n1 [Compound 278]
9 | 4.78 to 4.89 | 5.05 to 5.83 | < 4.78 | < 4.78 | < 4.78 | < 4.78 | Clc1cccc(Nc2ncnc(-n3cccc3)n2)c1 [Compound 275]
10 | < 4.82 | < 4.82 | < 4.82 | < 4.82 | < 4.82 | < 4.82 | COc1ccc(Nc2ncnc(-n3cccc3)n2)c(OC)c1 [Compound 273]
11 | < 4.83 | 5.10 to 5.88 | < 4.83 | < 4.83 | < 4.83 | < 4.83 | FC(F)(F)c1cccc(Nc2ncnc(-n3cccc3)n2)c1 [Compound 277]
12 | < 4.69 | 4.80 to 4.97 | < 4.69 | < 4.69 | < 4.69 | < 4.69 | Nc1ncnc(Nc2cccc(Cl)c2)n1 [Compound 1019]
13 | < 4.70 | < 4.70 | < 4.70 | < 4.70 | < 4.70 | < 4.70 | Nc1ncnc(Nc2ccc(F)cc2F)n1 [Compound 1014]
14 | < 4.72 | < 4.72 | < 4.72 | < 4.72 | < 4.72 | < 4.72 | Nc1ncnc(Nc2cc(Cl)ccc2O)n1 [Compound 1022]
15 | < 4.75 | < 4.75 | < 4.75 | < 4.75 | < 4.75 | < 4.75 | Nc1ncnc(Nc2cccc(C(F)(F)F)c2)n1 [Compound 1015]
16 | < 4.83 | < 4.83 | < 4.83 | < 4.83 | < 4.83 | < 4.83 | Nc1ncnc(Nc2nc(-c3ccc(Cl)cc3)cs2)n1 [Compound 1016]
17 | < 4.77 | < 4.77 | < 4.77 | < 4.77 | < 4.77 | < 4.77 | Cc1cccc(Nc2ncnc(-n3cccc3)n2)c1C [Compound 281]

Row | Structure (SMILES) | pIC50 (c-Met) | pIC50 (Kdr) | pIC50 (EGFR) | pIC50 (Itk) | pIC50 (Lck) | pIC50 (Zap-70)
18 | Clc1ccccc1Nc1ncnc(-n2cccc2)n1 [Compound 280] | < 4.78 | < 4.78 | < 4.78 | < 4.78 | < 4.78 | < 4.78
